In US10738028B2, “Spiro three-membered ring, spiro five-membered ring peptide deformylase inhibitor and use thereof in antibacteria and anti-tumor” (priority 2016, dated 2020):

What was measured:
Assay type in all cases: cell-based
[1] = test system: Streptococcus pneoumoniae (SPN); experiment: MIC, two-fold agar dilution (CLSI), clinical isolates; details: for Anti-bacterial activity (MIC), strain SPN 16-2: clinical isolate SPN 16-2; for Anti-bacterial activity (MIC), strain SPN 16-4: clinical isolate SPN 16-4
How it was run: (§1)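 Test samples were assayed by the CLSI-recommended two-fold agar dilution method, and the minimum inhibitory concentration against each tested strain was determined.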

[2] = test system: Enterococcus faecium (EFM); experiment: as above; details: for Anti-bacterial activity (MIC), strain EFM 15-1: clinical isolate EFM 15-1; for Anti-bacterial activity (MIC), strain EFM 15-2: clinical isolate EFM 15-2; for Anti-bacterial activity (MIC), strain EFM 15-3: clinical isolate EFM 15-3; for Anti-bacterial activity (MIC), strain EFM 15-4: clinical isolate EFM 15-4; for Anti-bacterial activity (MIC), strain EFM 15-5: clinical isolate EFM 15-5; for Anti-bacterial activity (MIC), strain EFM 15-6: clinical isolate EFM 15-6
How it was run: as §1

[3] = test system: methicillin-resistant Staphylococcus epidermidis (MRSE); experiment: as above; details: for Anti-bacterial activity (MIC), strain MRSE 15-1: clinical isolate MRSE 15-1; for Anti-bacterial activity (MIC), strain MRSE 15-2: clinical isolate MRSE 15-2; for Anti-bacterial activity (MIC), strain MRSE 15-3: clinical isolate MRSE 15-3; for Anti-bacterial activity (MIC), strain MRSE 15-7: clinical isolate MRSE 15-7
How it was run: as §1

[4] = test system: methicillin-sensitive Staphylococcus aureus (MSSA); experiment: as above; details: for Anti-bacterial activity (MIC), strain MSSA 15-3: clinical isolate MSSA 15-3; for Anti-bacterial activity (MIC), strain MSSA 15-4: clinical isolate MSSA 15-4; for Anti-bacterial activity (MIC), strain MSSA 15-5: clinical isolate MSSA 15-5; for Anti-bacterial activity (MIC), strain MSSA 15-6: clinical isolate MSSA 15-6
How it was run: as §1

[5] = test system: methicillin-resistant Staphylococcus aureus (MRSA); experiment: as above; details: for Anti-bacterial activity (MIC), strain MRSA 15-1: clinical isolate MRSA 15-1; for Anti-bacterial activity (MIC), strain MRSA 15-2: clinical isolate MRSA 15-2; for Anti-bacterial activity (MIC), strain MRSA 15-3: clinical isolate MRSA 15-3; for Anti-bacterial activity (MIC), strain MRSA 15-4: clinical isolate MRSA 15-4
How it was run: as §1

[6] = test system: methicillin-sensitive Staphylococcus epidermidis (MSSE); experiment: as above; details: for Anti-bacterial activity (MIC), strain MSSE 15-3: clinical isolate MSSE 15-3; for Anti-bacterial activity (MIC), strain MSSE 15-4: clinical isolate MSSE 15-4; for Anti-bacterial activity (MIC), strain MSSE 15-5: clinical isolate MSSE 15-5; for Anti-bacterial activity (MIC), strain MSSE 15-6: clinical isolate MSSE 15-6
How it was run: as §1

[7] = test system: Moraxella catarrhalis (BCA); experiment: as above; details: for Anti-bacterial activity (MIC), strain BCA 14-1: clinical isolate BCA 14-1; for Anti-bacterial activity (MIC), strain BCA 14-4: clinical isolate BCA 14-4; for Anti-bacterial activity (MIC), strain BCA 14-5: clinical isolate BCA 14-5; for Anti-bacterial activity (MIC), strain BCA 14-6: clinical isolate BCA 14-6; for Anti-bacterial activity (MIC), strain BCA 14-7: clinical isolate BCA 14-7; for Anti-bacterial activity (MIC), strain BCA 14-8: clinical isolate BCA 14-8; for Anti-bacterial activity (MIC), strain BCA 14-10: clinical isolate BCA 14-10
How it was run: as §1

[8] = test system: Escherichia coli (including ESBLs, non-ESBLs); experiment: as above; details: for Anti-bacterial activity (MIC), strain ECO+ 15-1: clinical isolate ECO+ 15-1; for Anti-bacterial activity (MIC), strain ECO+ 15-2: clinical isolate ECO+ 15-2; for Anti-bacterial activity (MIC), strain ECO+ 15-3: clinical isolate ECO+ 15-3; for Anti-bacterial activity (MIC), strain ECO+ 15-4: clinical isolate ECO+ 15-4; for Anti-bacterial activity (MIC), strain ECO− 15-1: clinical isolate ECO− 15-1; for Anti-bacterial activity (MIC), strain ECO− 15-2: clinical isolate ECO− 15-2; for Anti-bacterial activity (MIC), strain ECO− 15-3: clinical isolate ECO− 15-3; for Anti-bacterial activity (MIC), strain ECO− 15-4: clinical isolate ECO− 15-4
How it was run: as §1

[9] = test system: Enterococcus faecalis (EFA); experiment: as above; details: for Anti-bacterial activity (MIC), strain EFA 15-1: clinical isolate EFA 15-1; for Anti-bacterial activity (MIC), strain EFA 15-2: clinical isolate EFA 15-2; for Anti-bacterial activity (MIC), strain EFA 15-3: clinical isolate EFA 15-3; for Anti-bacterial activity (MIC), strain EFA 15-4: clinical isolate EFA 15-4; for Anti-bacterial activity (MIC), strain EFA 15-5: clinical isolate EFA 15-5; for Anti-bacterial activity (MIC), strain EFA 15-6: clinical isolate EFA 15-6; for Anti-bacterial activity (MIC), strain EFA 15-9: clinical isolate EFA 15-9
How it was run: as §1

[10] = test system: HCT-116 colorectal cancer cell line; experiment: CCK-8 proliferation inhibition; details: Homo sapiens, HCT-116, 72 h, concentration of 30 μM; 72 hours; CCK-8; read-out: HCT116 inhibition rate/%
How it was run: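 Cells seeded at 2000 cells/well, cultured overnight at 37 °C, 5% CO2, then exposed to compound (DMSO; control 1‰ DMSO) for 72 h in McCoy's 5A with 10% newborn bovine serum. Viability read with 1:10 diluted CCK-8.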

`CCCC[C@H](CC(=O)NO)C(=O)N1CC2(CC2)C[C@H]1C(=O)Nc1cnn(CCN(C)C)c1` [Example 52, (S)—N-(1-(2-(dimethylamino)ethyl)-1H-pyrazol-4-yl)-5-((R)-2-(2-(hydroxyamino)-2-oxoethyl)hexanoyl)-5-spiro[2.4]heptane-6-carboxamide] gave an Anti-bacterial activity (MIC), strain SPN 16-2 [1] of 8 mg/L, an Anti-bacterial activity (MIC), strain SPN 16-4 [1] of 8 mg/L and an Anti-bacterial activity (MIC), strain EFM 15-1 [2] greater than 32 mg/L. It also gave an Anti-bacterial activity (MIC), strain EFM 15-2 [2] greater than 32 mg/L, an Anti-bacterial activity (MIC), strain EFM 15-3 [2] greater than 32 mg/L and an Anti-bacterial activity (MIC), strain EFM 15-4 [2] greater than 32 mg/L. The Anti-bacterial activity (MIC), strain EFM 15-5 [2] was 16 mg/L, the Anti-bacterial activity (MIC), strain EFM 15-6 [2] was 16 mg/L and the Anti-bacterial activity (MIC), strain MRSE 15-1 [3] was greater than 32 mg/L. The Anti-bacterial activity (MIC), strain MRSE 15-2 [3] was greater than 32 mg/L, the Anti-bacterial activity (MIC), strain MRSE 15-3 [3] was greater than 32 mg/L and the Anti-bacterial activity (MIC), strain MRSE 15-7 [3] was greater than 32 mg/L. The Anti-bacterial activity (MIC), strain MSSA 15-3 [4] was greater than 32 mg/L, the Anti-bacterial activity (MIC), strain MSSA 15-4 [4] was greater than 32 mg/L and the Anti-bacterial activity (MIC), strain MSSA 15-5 [4] was greater than 32 mg/L. It also gave an Anti-bacterial activity (MIC), strain MSSA 15-6 [4] greater than 32 mg/L, an Anti-bacterial activity (MIC), strain MRSA 15-1 [5] greater than 32 mg/L and an Anti-bacterial activity (MIC), strain MRSA 15-2 [5] greater than 32 mg/L. It also gave an Anti-bacterial activity (MIC), strain MRSA 15-3 [5] greater than 32 mg/L, an Anti-bacterial activity (MIC), strain MRSA 15-4 [5] greater than 32 mg/L and an Anti-bacterial activity (MIC), strain MSSE 15-3 [6] greater than 32 mg/L. For the same compound, the Anti-bacterial activity (MIC), strain MSSE 15-4 [6] was greater than 32 mg/L, the Anti-bacterial activity (MIC), strain MSSE 15-5 [6] was greater than 32 mg/L and the Anti-bacterial activity (MIC), strain MSSE 15-6 [6] was greater than 32 mg/L. For the same compound, the Anti-bacterial activity (MIC), strain BCA 14-1 [7] was greater than 32 mg/L, the Anti-bacterial activity (MIC), strain BCA 14-4 [7] was greater than 32 mg/L and the Anti-bacterial activity (MIC), strain BCA 14-5 [7] was greater than 32 mg/L. For the same compound, the Anti-bacterial activity (MIC), strain BCA 14-6 [7] was greater than 32 mg/L, the Anti-bacterial activity (MIC), strain BCA 14-7 [7] was greater than 32 mg/L and the Anti-bacterial activity (MIC), strain BCA 14-8 [7] was greater than 32 mg/L. For the same compound, the Anti-bacterial activity (MIC), strain BCA 14-10 [7] was greater than 32 mg/L, the Anti-bacterial activity (MIC), strain ECO+ 15-1 [8] was greater than 32 mg/L and the Anti-bacterial activity (MIC), strain ECO+ 15-2 [8] was greater than 32 mg/L. The Anti-bacterial activity (MIC), strain ECO+ 15-3 [8] was greater than 32 mg/L, the Anti-bacterial activity (MIC), strain ECO+ 15-4 [8] was greater than 32 mg/L and the Anti-bacterial activity (MIC), strain ECO− 15-1 [8] was greater than 32 mg/L. It also gave an Anti-bacterial activity (MIC), strain ECO− 15-2 [8] greater than 32 mg/L, an Anti-bacterial activity (MIC), strain ECO− 15-3 [8] greater than 32 mg/L and an Anti-bacterial activity (MIC), strain ECO− 15-4 [8] greater than 32 mg/L. It also gave an Anti-bacterial activity (MIC), strain EFA 15-1 [9] greater than 32 mg/L, an Anti-bacterial activity (MIC), strain EFA 15-2 [9] greater than 32 mg/L and an Anti-bacterial activity (MIC), strain EFA 15-3 [9] greater than 32 mg/L. It also gave an Anti-bacterial activity (MIC), strain EFA 15-4 [9] greater than 32 mg/L, an Anti-bacterial activity (MIC), strain EFA 15-5 [9] greater than 32 mg/L and an Anti-bacterial activity (MIC), strain EFA 15-6 [9] greater than 32 mg/L. It also gave an Anti-bacterial activity (MIC), strain EFA 15-9 [9] greater than 32 mg/L and an inhibition at 30 µM [10] of -1%.

In the case of `CCCC[C@H](CC(=O)NO)C(=O)N1CC2(CC2)C[C@H]1C(=O)Nc1ncco1` [Example 53, (S)-5-((R)-2-(2-(hydroxyamino)-2-oxoethyl)hexanoyl)-N-(oxazol-2-yl)-5-azaspiro[2.4]heptane-6-carboxamide], the Anti-bacterial activity (MIC), strain SPN 16-2 [1] is reported as 32 mg/L, the Anti-bacterial activity (MIC), strain SPN 16-4 [1] is reported as 32 mg/L and the Anti-bacterial activity (MIC), strain EFM 15-1 [2] is reported as greater than 32 mg/L. It also gave an Anti-bacterial activity (MIC), strain EFM 15-2 [2] greater than 32 mg/L, an Anti-bacterial activity (MIC), strain EFM 15-3 [2] greater than 32 mg/L and an Anti-bacterial activity (MIC), strain EFM 15-4 [2] greater than 32 mg/L. For the same compound, the Anti-bacterial activity (MIC), strain EFM 15-5 [2] was 32 mg/L, the Anti-bacterial activity (MIC), strain EFM 15-6 [2] was 32 mg/L and the Anti-bacterial activity (MIC), strain MRSE 15-1 [3] was greater than 32 mg/L. It also gave an Anti-bacterial activity (MIC), strain MRSE 15-2 [3] greater than 32 mg/L, an Anti-bacterial activity (MIC), strain MRSE 15-3 [3] greater than 32 mg/L and an Anti-bacterial activity (MIC), strain MRSE 15-7 [3] greater than 32 mg/L. The Anti-bacterial activity (MIC), strain MSSA 15-3 [4] was greater than 32 mg/L, the Anti-bacterial activity (MIC), strain MSSA 15-4 [4] was greater than 32 mg/L and the Anti-bacterial activity (MIC), strain MSSA 15-5 [4] was greater than 32 mg/L. For the same compound, the Anti-bacterial activity (MIC), strain MSSA 15-6 [4] was greater than 32 mg/L, the Anti-bacterial activity (MIC), strain MRSA 15-1 [5] was 16 mg/L and the Anti-bacterial activity (MIC), strain MRSA 15-2 [5] was greater than 32 mg/L. For the same compound, the Anti-bacterial activity (MIC), strain MRSA 15-3 [5] was 16 mg/L, the Anti-bacterial activity (MIC), strain MRSA 15-4 [5] was greater than 32 mg/L and the Anti-bacterial activity (MIC), strain MSSE 15-3 [6] was greater than 32 mg/L. It also gave an Anti-bacterial activity (MIC), strain MSSE 15-4 [6] greater than 32 mg/L, an Anti-bacterial activity (MIC), strain MSSE 15-5 [6] greater than 32 mg/L and an Anti-bacterial activity (MIC), strain MSSE 15-6 [6] greater than 32 mg/L. For the same compound, the Anti-bacterial activity (MIC), strain BCA 14-1 [7] was greater than 32 mg/L, the Anti-bacterial activity (MIC), strain BCA 14-4 [7] was greater than 32 mg/L and the Anti-bacterial activity (MIC), strain BCA 14-5 [7] was greater than 32 mg/L. It also gave an Anti-bacterial activity (MIC), strain BCA 14-6 [7] greater than 32 mg/L, an Anti-bacterial activity (MIC), strain BCA 14-7 [7] greater than 32 mg/L and an Anti-bacterial activity (MIC), strain BCA 14-8 [7] greater than 32 mg/L. For the same compound, the Anti-bacterial activity (MIC), strain BCA 14-10 [7] was greater than 32 mg/L, the Anti-bacterial activity (MIC), strain ECO+ 15-1 [8] was greater than 32 mg/L and the Anti-bacterial activity (MIC), strain ECO+ 15-2 [8] was greater than 32 mg/L. For the same compound, the Anti-bacterial activity (MIC), strain ECO+ 15-3 [8] was greater than 32 mg/L, the Anti-bacterial activity (MIC), strain ECO+ 15-4 [8] was greater than 32 mg/L and the Anti-bacterial activity (MIC), strain ECO− 15-1 [8] was greater than 32 mg/L. The Anti-bacterial activity (MIC), strain ECO− 15-2 [8] was greater than 32 mg/L, the Anti-bacterial activity (MIC), strain ECO− 15-3 [8] was greater than 32 mg/L and the Anti-bacterial activity (MIC), strain ECO− 15-4 [8] was greater than 32 mg/L. It also gave an Anti-bacterial activity (MIC), strain EFA 15-1 [9] greater than 32 mg/L, an Anti-bacterial activity (MIC), strain EFA 15-2 [9] greater than 32 mg/L and an Anti-bacterial activity (MIC), strain EFA 15-3 [9] greater than 32 mg/L. It also gave an Anti-bacterial activity (MIC), strain EFA 15-4 [9] greater than 32 mg/L, an Anti-bacterial activity (MIC), strain EFA 15-5 [9] greater than 32 mg/L and an Anti-bacterial activity (MIC), strain EFA 15-6 [9] greater than 32 mg/L. For the same compound, the Anti-bacterial activity (MIC), strain EFA 15-9 [9] was greater than 32 mg/L and the inhibition at 30 µM [10] was -18%.
